# Test results from patent US20130203765A1, “DEUTERATED PYRROLOPYRIMIDINE COMPOUNDS AS INHIBITORS OF CDK4/6” (Novartis AG, priority 2010, published 2013).
# Experiments:
# CDK1/cyclin B = CDK1/cyclin B (Homo sapiens, UniProt P06493); test: CDK1/cyclin B enzymatic activity assay (IMAP-FP); type: biochemical; details: 100 nM Tamra Histone-H1 peptide, 20 μM ATP, 120 min
# Description: CDK1/Cyclin B Enzymatic Activity Assay A 384-well microtiter IMAP-FP™ (Molecular Devices Trade Mark Technology) endpoint assay was used for CDK1/cyclin B kinase activity measurements. The same assay was used for IC50 determination of small molecule inhibitors. […] No. R8139), 10 μL substrate mixture of Tamra Histone-H1 peptide (Molecular Devices, Cat. No. R7384) and ATP (Amersham Pharmacia, Cat. No. 27-2056-01) in the 1× Reaction Buffer with 1 mM DTT freshly added. […] All reactions were run at room temperature in black 384-well flat-bottom Costar plates (Corning, Cat. […] No. R8139).
# [1] = Rat pharmacokinetics, intravenous injection 1 mg/kg; type: in vivo, Sprague Dawley rats; details: for AUC0-7 h / AUC0-7 h of mono-methyl metabolite: n=2, plasma, mean; for AUC0-7 h: dosed parent compound; for AUC0-7 h of mono-methyl metabolite: IV 1 mg/kg of the parent (Example 1 or Comparator A), metabolite measured
# Description: (§1) The plasma was separated, frozen and later analyzed. […] In the case of Comparator A the plasma was analyzed for Comparator A and its mono-methyl metabolite, Comparator B. The quantitation of each metabolite and its parent compound was done by LC-MS/MS with standard curves using authentic standards of each compound. The analysis allowed the characterization of the time-concentration profile and the calculation of pharmacokinetic (PK) parameters via non-compartmental methods.
# [2] = Rat pharmacokinetics, oral gavage 5 mg/kg; type: in vivo, Sprague Dawley rats; details: for Cmax / Tmax / AUC0-7 h: PO 5 mg/kg; for Cmax / Tmax: n=3, dosed parent compound; for Cmax / Tmax / AUC0-7 h / AUC0-7 h of mono-methyl metabolite / Tmax of mono-methyl metabolite: mean; for AUC0-7 h / AUC0-7 h of mono-methyl metabolite: n=3, plasma; for AUC0-7 h: dosed parent compound; for AUC0-7 h of mono-methyl metabolite: PO 5 mg/kg of the parent (Example 1 or Comparator A), metabolite measured; for Tmax of mono-methyl metabolite: PO 5 mg/kg of the parent, n=3, metabolite measured
# Description: as §1
# CDK4/cyclin D1 = biological target: T1, CDK4/cyclin D1 (Homo sapiens, UniProt P11802); test: CDK4/cyclin D1 enzymatic activity assay (Lance TR-FRET); type: biochemical; details: 0.3 nM CDK4/cyclin D1, 175 nM pRb152, 3 μM ATP, 60 min
# T1 construct: His6 (N); made in house; host or cells: Sf21 insect cells (baculovirus)
# Description: The same assay was used for IC50 determination of small molecule inhibitors. In general, the kinase reactions were carried out in 30 μL volumes in the reaction solution containing the following: 2 uL compound (in 20% DMSO), 18 uL CDK4/cyclin D1 in Assay Buffer (50 mM HEPES, pH 7.5, 5 mM MgCl2, 2 mM MnCl2, 1 mM DTT, 0.05% BSA, 0.02% Tween-20), 10 uL of the mixture of pRb152 and ATP. […] All reactions were run at room temperature in 384-well white flat-bottom OptiPlates (Perkin Elmer, Cat. No. 6007290) for 60 min then were quenched by the addition of 10 μL of 120 mM EDTA. The signals were captured by the addition of 40 μL of the Detection Solution containing the following: Detection Buffer (50 mM HEPES, pH 7.5, 30 mM EDTA, 0.1% Triton x-100, 0.05% BSA), 70 ng/mL anti-phospho-pRb(S780) (Cell Signaling Technology, Cat. No. 9307S), 1 nM Lance Eu-W1024-Rabbit anti-IgG (Perkin Elmer, Cat. No. AD0082), and 20 nM SureLight™ Allophycocyanin-Streptavidin (Perkin Elmer, Cat. No. CR130-100). The resulted solutions were incubated at room temperature for 2 hours before read on the Evision Multilabel Reader (Perkin Elmer, Envision 2102-0010).
# CDK1/cyclin B, sequence (P06493 whole entry, species assumed): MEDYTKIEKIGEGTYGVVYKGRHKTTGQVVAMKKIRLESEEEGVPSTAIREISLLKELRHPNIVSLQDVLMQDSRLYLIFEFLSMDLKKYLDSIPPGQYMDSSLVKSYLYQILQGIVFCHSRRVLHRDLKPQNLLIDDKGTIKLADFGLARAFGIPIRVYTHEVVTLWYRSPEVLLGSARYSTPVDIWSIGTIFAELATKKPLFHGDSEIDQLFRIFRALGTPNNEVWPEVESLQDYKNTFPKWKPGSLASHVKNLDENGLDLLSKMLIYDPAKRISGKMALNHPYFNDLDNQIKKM
# CDK1/cyclin B, sequence (P14635 whole entry partner, species assumed): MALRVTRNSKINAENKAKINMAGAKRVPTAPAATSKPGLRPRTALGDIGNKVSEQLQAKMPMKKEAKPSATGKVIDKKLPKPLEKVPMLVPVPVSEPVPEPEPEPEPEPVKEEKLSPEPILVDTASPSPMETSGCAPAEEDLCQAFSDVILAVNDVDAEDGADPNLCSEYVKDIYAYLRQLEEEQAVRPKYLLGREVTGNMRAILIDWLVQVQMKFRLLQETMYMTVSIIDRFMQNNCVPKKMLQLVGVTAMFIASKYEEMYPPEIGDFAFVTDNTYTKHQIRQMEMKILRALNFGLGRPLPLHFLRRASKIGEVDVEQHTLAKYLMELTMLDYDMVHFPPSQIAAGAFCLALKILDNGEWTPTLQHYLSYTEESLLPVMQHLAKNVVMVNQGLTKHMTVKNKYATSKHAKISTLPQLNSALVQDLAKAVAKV
# T1 sequence (P11802 whole entry): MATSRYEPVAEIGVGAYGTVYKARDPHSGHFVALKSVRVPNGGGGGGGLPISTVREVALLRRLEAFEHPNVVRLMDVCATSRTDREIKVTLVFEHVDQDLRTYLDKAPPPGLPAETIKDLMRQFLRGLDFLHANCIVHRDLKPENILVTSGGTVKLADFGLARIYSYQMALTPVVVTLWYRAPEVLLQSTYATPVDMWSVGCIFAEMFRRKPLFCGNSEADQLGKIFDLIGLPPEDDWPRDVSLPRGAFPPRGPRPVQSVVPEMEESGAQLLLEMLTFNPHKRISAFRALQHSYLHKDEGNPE
# T1 sequence (P24385 whole entry partner): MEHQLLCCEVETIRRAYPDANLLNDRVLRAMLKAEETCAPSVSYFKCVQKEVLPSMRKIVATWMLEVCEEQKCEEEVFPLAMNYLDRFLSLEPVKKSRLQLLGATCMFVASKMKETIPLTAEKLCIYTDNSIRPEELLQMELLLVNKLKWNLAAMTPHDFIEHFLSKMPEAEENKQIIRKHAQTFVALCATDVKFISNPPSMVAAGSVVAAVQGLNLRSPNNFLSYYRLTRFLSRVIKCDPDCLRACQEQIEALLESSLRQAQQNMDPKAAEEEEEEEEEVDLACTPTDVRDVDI
AUC0-7 h of mono-methyl metabolite [1] [µM·h],AUC0-7 h of mono-methyl metabolite [2] [µM·h],Tmax of mono-methyl metabolite [2] [h],Compound,"T½ ([1]; IV 1 mg/kg, n=2, mean) [h]",AUC0-7 h ([1]; IV 1 mg/kg) [µM·h],Tmax [2] [h],AUC0-7 h [2] [µM·h],other results
,,,"7-cyclopentyl-2-(5-piperzin-1-yl-pyridin-2-ylamino)-7H-pyrrolo[2,3-d]pyrimidine-6-carboxylic acid dimethylamide-d5 [Example 1]",3.2,0.883,2,2.432,"IC50 (CDK1/cyclin B; […] CDK1/cyclin B): > 15 µM; VDss higher than VDss of Comparator A ([1]; 1 mg/kg iv): approximately 1.6 fold; CL ([1]; IV 1 mg/kg, n=2, mean): 37 mL/min/kg; Vdss ([1]; IV 1 mg/kg, n=2, mean): 8.6 L/kg; Absolute oral bioavailability higher than Comparator A ([2]; 5 mg/kg po): 1.8 fold; F (absolute oral bioavailability) ([2]; PO 5 mg/kg vs IV 1 mg/kg): 55%; Cmax [2]: 549 nM"
,,,"CN(C)C(=O)c1cc2cnc(Nc3ccc(N4CCNCC4)cn3)nc2n1C1CCCC1 [Comparator A, 7-cyclopentyl-2-(5-piperazin-1-yl-pyridin-2-ylamino)-7H-pyrrolo[2,3-d]pyrimidine-6-carboxylic acid dimethylamide, reference compound]",2.3,1.028,1.5,1.618,"clearance ([1]; Sprague Dawley, plasma, IV 1 mg/kg, n=2, mean): 34 mL/min/kg; Vd ([1]; Sprague Dawley, plasma, IV 1 mg/kg, n=2, mean, read-out: Vdss): 5.4 L/kg; bioavailability ([2]; Sprague Dawley, plasma, PO 5 mg/kg vs IV 1 mg/kg, read-out: F (absolute oral bioavailability)): 31%; Cmax ([2]; Sprague Dawley, plasma): 348 nM"
0.156,0.372,4.3,"CNC(=O)c1cc2cnc(Nc3ccc(N4CCNCC4)cn3)nc2n1C1CCCC1 [Comparator B, 7-cyclopentyl-2-(5-piperazin-1-yl-pyridin-2-ylamino)-7H-pyrrolo[2,3-d]pyrimidine-6-carboxylic acid methylamide, reference compound]",,,,,
0.066,0.128,3.3,"[2H]C([2H])([2H])NC(=O)c1cc2cnc(Nc3ccc(N4CCNCC4)cn3)nc2n1C1CCCC1 [Example 2, 7-cyclopentyl-2-(5-piperzin-1-yl-pyridin-2-ylamino)-7H-pyrrolo[2,3-d]pyrimidine-6-carboxylic acid methylamide-d3]",,,,,IC50 (CDK4/cyclin D1): 0.132 µM; IC50 (CDK1/cyclin B; 0.25 nM CDK1/cyclin B): > 15 µM
